These results are taken from patent US10421718B2, “EBNA1 inhibitors and their method of use” (priority 2013, dated 2019).

SMILES strings stand for the structures. Where a name gives a salt, the structure may show the parent alone.

T1 sequence (P03211 459-607): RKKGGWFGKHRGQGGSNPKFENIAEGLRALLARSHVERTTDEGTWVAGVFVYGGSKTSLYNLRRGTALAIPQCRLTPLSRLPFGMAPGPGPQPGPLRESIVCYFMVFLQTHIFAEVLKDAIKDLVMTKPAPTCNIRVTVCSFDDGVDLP

The assay concerns the target T1, His-EBNA1 (DNA binding domain of EBNA1, amino acids 459-607) (Epstein-Barr virus, UniProt P03211).
T1 construct: made in house; host or cells: E. coli
Briefly: Inhibition of 5′-biotin-oPL4624 binding to His-EBNA1 using Alpha Screen technology. The settings on record: Alpha Screen Activity (IC50, inhibition of 5′-biotin-oPL4624 binding to His-EBNA1), 15 nM His-EBNA1, 0.2 nM bt-oPL4624, 2 hr room temperature. The method in brief: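 His-tagged EBNA1 DNA-binding domain (aa 459-607, E. coli-expressed) at 15 nM with 0.2 nM biotinylated self-complementary oligo, streptavidin donor and nickel acceptor beads, in 25 mM Tris pH 7.2, 160 mM NaCl, 1 mM MgCl2. Compound 3.2 nM-100 μM final; AlphaScreen read after 2 h at room temperature, one-site dose-response fit.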
A general note: Bead proximity is the source of the signal in Alpha formats.
A word on the IC50: it is the concentration that inhibits the measured activity by half. `O=C(O)c1cccc(C#Cc2ccc3cc[nH]c3n2)c1-n1cccc1` [Entry 30, 2-(1H-pyrrol-1-yl)-3-(2-{1H-pyrrolo[2,3-b]pyridin-6-yl}ethynyl)benzoic acid] registered an IC50 of 1 to 10 µM.

With `O=C(O)c1cccc(C#Cc2cccc(CNS(=O)(=O)C3CC3)c2)c1-n1cccc1` [Entry 165, 3-{2-[3-(cyclopropanesulfonamidomethyl)phenyl]ethynyl}-2-(1H-pyrrol-1-yl)benzoic acid], the IC50 is less than 1 µM.

Compound `O=C(O)c1cccc(C#Cc2cccc(O)c2)c1-c1ccc2cn[nH]c2c1` [Entry 222, 3-((3-hydroxyphenyl)ethynyl)-2-(1H-indazol-6-yl)benzoic acid] registered an IC50 of 1 to 10 µM.

`Nc1cccc(C#Cc2cccc(C(=O)O)c2-c2ccc3cc[nH]c3c2)n1` [Entry 239, 3-((6-aminopyridin-2-yl)ethynyl)-2-(1H-indol-6-yl)benzoic acid]: the IC50 lay in the range of 1 to 10 µM.

In the case of `O=C(O)c1cc(F)cc(C#Cc2ccc(F)cc2)c1-n1cccc1` [Entry 60, 5-fluoro-3-[2-(4-fluorophenyl)ethynyl]-2-(1H-pyrrol-1-yl)benzoic acid], the IC50 is 100 to 1000 µM.

The compound `NC(=O)c1cc(C#Cc2cccc(C(=O)O)c2)cc2[nH]ccc12` [Entry 179, 3-(4-carbamoyl-1H-indol-6-ylethynyl)-benzoic acid] yielded an IC50 of 1 to 10 µM.

`CN(C)C1CCN(c2c(C#Cc3ccccc3)cccc2C(=O)O)C1` (stereo not drawn) [Entry 103, 2-(3-(dimethylamino)pyrrolidin-1-yl)-3-(phenylethynyl)benzoic acid] returned an IC50 of 10 to 100 µM.

As to `CS(=O)(=O)NC(=O)c1cccc(C#Cc2ccc(F)cc2)c1-n1cccc1` [Entry 117, 3-[2-(4-fluorophenyl)ethynyl]-N-methanesulfonyl-2-(1H-pyrrol-1-yl)benzamide], the IC50 fell in the range of 10 to 100 µM.

For `O=C(O)c1cccc(C#Cc2ccccc2)c1-n1ncc2ccccc21` [Entry 298, 2-indazol-1-yl-3-phenylethynyl-benzoic acid], the IC50 was in the range of 10 to 100 µM.

`O=C(O)c1cccc(C#Cc2cccc3cc[nH]c23)c1-n1cccc1` [Entry 18, 3-[2-(1H-indol-7-yl)ethynyl]-2-(1H-pyrrol-1-yl)benzoic acid] gave an IC50 of less than 1 µM.

Turning to `O=C(O)c1cccc(C#Cc2ccc(F)cc2F)c1-c1ccc2cc[nH]c2c1` [Entry 229, 3-((2,4-Difluorophenyl)ethynyl)-2-(1H-indol-6-yl)benzoic acid], the IC50 was 1 to 10 µM.

On to `O=C(O)c1cccc(C#Cc2ccccc2)c1-c1ccc2occc2c1` [Entry 131, 2-(1-benzofuran-5-yl)-3-(2-phenylethynyl)benzoic acid], for which the IC50 lay within 10 to 100 µM.

`CS(=O)(=O)Nc1cccc(C#Cc2cccc(C(=O)O)c2-c2ccc3cc[nH]c3c2)c1` [Entry 234, 2-(1H-indol-6-yl)-3-((3-(methylsulfonamido)phenyl)ethynyl)benzoic acid] registered an IC50 of 1 to 10 µM.

Take `O=C(Nc1ccc(C#Cc2cccc(C(=O)O)c2-c2ccc3cc[nH]c3c2)cc1)c1cccnc1` [Entry 214, 2-(1H-indol-6-yl)-3-{4-[(pyridine-3-carbonyl)-amino]phenylethynyl}-benzoic acid]: the IC50 is less than 1 µM.

In turn, `O=C(O)c1cccc(C#Cc2ccccc2)c1-c1cn[nH]c1` [Entry 99, 3-(2-phenylethynyl)-2-(1H-pyrazol-4-yl)benzoic acid] returned a concentration for half-maximal inhibition (IC50) of 1 to 10 µM.

`O=C(O)c1cccc(C#Cc2ccccc2)c1C1=CCNCC1` [Entry 96, 3-(2-phenylethynyl)-2-(1,2,3,6-tetrahydropyridin-4-yl)benzoic acid trifluoroacetic acid salt] displayed a half-inhibitory concentration (IC50) of 1 to 10 µM.

Consider `O=C(O)c1cccc(C#Cc2cccc(C(=O)N3CCOCC3)c2)c1` [Entry 286, 3-[3-(morpholine-4-carbonyl)-phenylethynyl]-benzoic acid], for which the IC50 lay within 10 to 100 µM.

In turn, `CN(C)CC#Cc1cccc(C(=O)O)c1-n1cccc1` [Entry 64, 3-[3-(dimethylamino)prop-1-yn-1-yl]-2-(1H-pyrrol-1-yl)benzoic acid] returned an IC50 of 100 to 1000 µM.

Consider `NC(=O)c1ccc(C#Cc2cccc(C(=O)O)c2-c2ccc3cc[nH]c3c2)cc1` [Entry 211, 3-(4-carbamoyl-phenylethynyl)-2-(1H-indol-6-yl)-benzoic acid], for which the IC50 fell in the range of 1 to 10 µM.

For the compound `Cc1noc(C)c1-c1c(C#Cc2ccccc2)cccc1C(=O)O` [Entry 154, 2-(dimethyl-1,2-oxazol-4-yl)-3-(2-phenylethynyl)benzoic acid], the half-inhibitory concentration (IC50) is 1 to 10 µM.

`O=C(O)c1cccc(CCc2ccccc2)c1-n1cccc1` [Entry 147, 3-(2-phenylethyl)-2-(1H-pyrrol-1-yl)benzoic acid] registered an IC50 of 10 to 100 µM.

On to `O=C(O)c1cc2cc(-c3c(C#Cc4cccc(O)c4)cccc3C(=O)O)ccc2[nH]1` [Entry 254, 5-(2-carboxy-6-((3-hydroxyphenyl)ethynyl)phenyl)-1H-indole-2-carboxylic acid], for which the IC50 lay in the range of 10 to 100 µM.

On to `CN(C)Cc1ccc(-c2c(C#Cc3ccccc3)cccc2C(=O)O)cc1` [Entry 95, 2-{4-[(dimethylamino)methyl]phenyl}-3-(2-phenylethynyl)benzoic acid trifluoroacetic acid salt], for which the IC50 is 1 to 10 µM.

In turn, `CN1CCN(C(=O)c2cccc(C#Cc3cccc(C(=O)O)c3)c2)CC1` [Entry 289, 3-[3-(4-methyl-piperazine-1-carbonyl)-phenylethynyl]-benzoic acid] had an IC50 of 100 to 1000 µM.

In turn, `O=C(O)c1cccc(C#Cc2ccccc2)c1N1CCNCC1` [Entry 107, 3-(phenylethynyl)-2-(piperazin-1-yl)benzoic acid] yielded an IC50 of 10 to 100 µM.

As for `CN(C)c1ccc(-c2c(C#Cc3ccncc3)cccc2C(=O)O)cc1` [Entry 175, 2-[4-(dimethylamino)phenyl]-3-[2-(pyridin-4-yl)ethynyl]benzoic acid], the IC50 was in the range of 10 to 100 µM.

`O=C(NC1CC1)c1ccc(-c2c(C#Cc3ccccc3)cccc2C(=O)O)cc1` [Entry 138, 2-[4-(cyclopropylcarbamoyl)phenyl]-3-(2-phenylethynyl)benzoic acid] registered an IC50 of 10 to 100 µM.

`O=C(O)c1cccc(C#Cc2cscn2)c1-c1ccc2cc[nH]c2c1` [Entry 218, 2-(1H-indol-6-yl)-3-(thiazol-4-ylethynyl)benzoic acid] had an IC50 of 10 to 100 µM.

Compound `O=C(O)c1cccc(C#Cc2cccc(O)c2)c1-c1c[nH]c2ccccc12` [Entry 276, 3-[2-(3-hydroxyphenyl)ethynyl]-2-(1H-indol-3-yl)benzoic acid] showed an IC50 of 10 to 100 µM.

On to `O=C(O)c1cccc(C#Cc2ccccc2)c1` [Entry 92, 3-(2-phenylethynyl)benzoic acid], for which the IC50 is 10 to 100 µM.

The compound `O=C(O)c1cccc(C#Cc2ccccc2)c1-c1ccccc1` [Entry 124, 2-phenyl-3-(2-phenylethynyl)benzoic acid] had an IC50 of 10 to 100 µM.

On to `COc1ccc(-c2c(C#Cc3ccncc3)cccc2C(=O)O)cc1O` [Entry 185, 3′-hydroxy-4′-methoxy-6-pyridin-4-ylethynyl-biphenyl-2-carboxylic acid], for which the IC50 was in the range of 100 to 1000 µM.

`O=C(O)c1cccc(C#CC2(O)CCCCC2)c1-n1cccc1` [Entry 54, 3-[2-(1-hydroxycyclohexyl)ethynyl]-2-(1H-pyrrol-1-yl)benzoic acid] had an IC50 of 1 to 10 µM.

Compound `O=C(O)c1cccc(C#CCCCO)c1-c1cnc2ccccc2c1` [Entry 141, 3-(5-hydroxypent-1-ynyl)-2-(quinolin-3-yl)benzoic acid] yielded an IC50 of 10 to 100 µM.

For `Cn1cncc1C#Cc1cccc(C(=O)O)c1-n1cccc1` [Entry 26, 3-[2-(1-methyl-1H-imidazol-5-yl)ethynyl]-2-(1H-pyrrol-1-yl)benzoic acid], the IC50 lay within 10 to 100 µM.

Consider `O=C(O)c1cccc(C#Cc2ccccc2)c1-c1cnc2ccccc2c1` [Entry 122, 3-(2-phenylethynyl)-2-(quinolin-3-yl)benzoic acid], for which the IC50 was 10 to 100 µM.

On to `O=C(O)c1cccc(C#Cc2c[nH]c3ccccc23)c1` [Entry 182, 3-(1H-indol-3-ylethynyl)-benzoic acid], for which the IC50 is 10 to 100 µM.

In turn, `O=C(O)c1cccc(C#Cc2ccccc2)c1-n1cccn1` [Entry 295, 3-phenylethynyl-2-pyrazol-1-yl-benzoic acid] yielded an IC50 of 100 to 1000 µM.

In the case of `O=C(O)c1cccc(C#Cc2ccccc2)c1N1CCCC1` [Entry 106, 3-(phenylethynyl)-2-(pyrrolidin-1-yl)benzoic acid], the IC50 lay in the range of 10 to 100 µM.

On to `CS(=O)(=O)Nc1cccc(-c2c(C#Cc3cccc(O)c3)cccc2C(=O)O)c1` [Entry 265, 3-[2-(3-hydroxyphenyl)ethynyl]-2-(3-methanesulfonamidophenyl)benzoic acid], for which the IC50 is 10 to 100 µM.

Regarding `O=C(O)c1cccc(C#CCN2CCCC2)c1-c1ccccc1` [Entry 160, 2-phenyl-3-[3-(pyrrolidin-1-yl)prop-1-yn-1-yl]benzoic acid], the IC50 was 10 to 100 µM.

As for `O=C(O)c1cccc(C#Cc2c[nH]c3ncccc23)c1` [Entry 76, 3-(2-{1H-pyrrolo[2,3-b]pyridin-3-yl}ethynyl)benzoic acid], the half-inhibitory concentration (IC50) is 10 to 100 µM.

Compound `Cn1ccc2cc(-c3c(C#Cc4ccccc4)cccc3C(=O)O)ccc21` [Entry 133, 2-(1-methyl-1H-indol-5-yl)-3-(2-phenylethynyl)benzoic acid] gave an IC50 of 1 to 10 µM.

On to `O=C(O)c1cccc(C#Cc2c[nH]c3ncccc23)c1-n1cccc1` [Entry 34, 2-(1H-pyrrol-1-yl)-3-(2-{1H-pyrrolo[2,3-b]pyridin-3-yl}ethynyl)benzoic acid], for which the IC50 was less than 1 µM.

The compound `Cc1ccc(C)n1-c1c(C#CC(O)c2ccccc2)cccc1C(=O)O` (stereo not drawn) [Entry 197, 2-(2,5-dimethyl-pyrrol-1-yl)-3-(3-hydroxy-3-phenyl-prop-1-ynyl)-benzoic acid] returned an IC50 of 10 to 100 µM.
